Patent US20120122085A1, “RECQL4/RECQL4 VARIANT-P53 COMPLEX FOR ALTERED MITOCHONDRIAL FUNCTION IN ROTHMUND-THOMSON SYNDROME” (NATIONAL INSTUTUTE OF IMMUNOLOGY, priority 2009, published 2012)
“Also recorded” adds a separate entry of the source.

Tested on: RTS patient cells
Assay: Intracellular ROS in RTS cells measured by oxidation of CM-H2DCFDA after DNA damage
Format: cell-based, human
Settings: post exposure to mitomycin C, FIG. 10E
Excerpt: By transmission electron microscopy (TEM) we observed that the mitochondrial cristae were distorted and the intercristal space expanded in all the RTS fibroblasts grown under asynchronous conditions (FIG. 10A). The extent of the cristae space is known to affect the overall chemiosmotic function in the cell (Mannella, 2006). […] Apart from ATP, mitochondria also produce the reactive oxygen species (ROS). Spontaneous ROS levels are usually low in normal cells as elevation of ROS levels can result in significant damage to cell structure (Schumacker, 2006). Indeed the level of ROS in asynchronous NHF was low as determined by the oxidation of 5-(and-6)-chloromethyl-2′,7′-dichlorodihydrofluorescein diacetate, acetyl ester (CM-H2DCFDA). […] Mitochondrial mass was determined by usage of a fluorescent dye Mitotracker Red 580 (200 nM, Invitrogen). […] The cells were subsequently washed, fixed and then analyzed in a Zeiss 510 Meta system with a 40×/0.95 Con objective. The fluorescence was captured initially for NHF and the acquisition parameters were kept unchanged for the capture of the fluorescence for the RTS cells. […] The activity was measured at 412 nm at 30° C. using 10 μg for each sample. Activity was expressed as nmole/min/mg of protein. Intracellular ROS in RTS cells was measured by the oxidation of CM-H2DCFDA (4 μM, Invitrogen). […]

## O=C1O[C@H]([C@@H](O)CO)C(O)=C1O [ascorbic acid]
  effect on abnormally high ROS levels in RTS cells after DNA damage: decreases the load of reactive oxygen species; also recorded: reversed this effect
